Assay: Photobleaching of Eosin Y in carbomer gel under blue light
Assay type: physicochemical
Conditions: 109 μg/g Eosin Y, 12% urea peroxide, 200 ppm KI, blue light 5 cm, 10 minutes
Method: In this experiment, a first carbomer gel comprising 109 μg/g of Eosin Y and 12% urea peroxide (UP) was prepared. […] The two gels were then illuminated with blue light (5 cm distance) for 10 minutes. The fluorescence was measured and recorded by a spectrophotometer.

[I-].[K+] [KI]
time taken to photobleach the chromophore: prolonged the time taken to photobleach the chromophore

From US20170209348A1, “BIOPHOTONIC COMPOSITIONS COMPRISING HALOGEN AND USES THEREOF” (KLOX Technologies Inc., priority 2014, published 2017)
